Laboratory results as given in article PMC10342118, “Microbial Metabolites of 3-n-butylphthalide as Monoamine Oxidase A Inhibitors” (International Journal of Molecular Sciences, 2023).
Where “and” joins values, the source holds several entries; their conditions need not be identical. Identical values can stand only once. Like-named read-outs stand apart in the source and are kept apart here. Marks after values point to notes of the source that are not given here.

Key:
MAO-A [1] = molecular target: T1, MAO-A (Homo sapiens, UniProt P21397); assay: Isothermal titration calorimetry (ITC) of the interaction of MAO-A with the compounds; format: binding
T1 sequence (P21397 1-527): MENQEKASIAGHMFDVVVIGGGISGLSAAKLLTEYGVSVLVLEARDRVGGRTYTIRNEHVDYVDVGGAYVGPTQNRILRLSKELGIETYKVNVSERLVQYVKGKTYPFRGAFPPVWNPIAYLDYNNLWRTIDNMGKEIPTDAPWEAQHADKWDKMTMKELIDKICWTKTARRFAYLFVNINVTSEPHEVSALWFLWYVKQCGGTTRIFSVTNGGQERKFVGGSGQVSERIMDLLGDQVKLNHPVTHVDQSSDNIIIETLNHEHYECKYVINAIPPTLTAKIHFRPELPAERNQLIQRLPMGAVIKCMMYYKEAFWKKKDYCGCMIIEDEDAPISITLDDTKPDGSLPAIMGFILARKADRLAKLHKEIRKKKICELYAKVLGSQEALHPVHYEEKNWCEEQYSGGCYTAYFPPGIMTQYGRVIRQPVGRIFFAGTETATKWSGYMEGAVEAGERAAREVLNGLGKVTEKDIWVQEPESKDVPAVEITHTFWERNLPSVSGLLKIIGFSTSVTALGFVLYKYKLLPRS
Experimental: (§1) Protein-ligand interaction analysis was performed using isothermal titration calorimetry (ITC). During the analysis, the heat of uptake or release, due to the interaction of MAO-A with the tested compounds, was recorded. In this way, raw data were obtained in the form of exothermic heat versus time graphs. Additionally, the ligand was injected into 1% DMSO with methanol to subtract the energetic effects of the dilution of the ligand solution. The highest negative change in enthalpy was characterized by the interaction of the enzyme with compounds 3 (−19.19 kJ/mol) and 4 (−13.37 kJ/mol), and the lowest value of ΔH was recorded during interactions with compound 1 (−4.51 kJ/mol). […] Affinity (ΔG) values were more evenly distributed between compound 1, compounds 1 with 4, 2 with 4, and 2 with 3. […] The ability of the ligands to inhibit […] activity was described on the basis of the IC50 parameter.
(§2) A MicroCal PEAQ-ITC200 calorimeter (Malvern, Worcestershire, UK) was used to study the interactions of MAO-A with the compounds. The enzyme and compounds were prepared in 1% DMSO with methanol. The measurements were performed at 36.6 °C. The stirring speed was set to 307 rpm, and a total of 19 injections were performed within 50 min, with the reference power set to 10.00 μcal/s. All sample solutions were thoroughly degassed before use. The calorimetric cell was filled with a 20 μM (350 µL) MAO-A sample, and the syringe (2 µL of injection volume) was loaded with a 1 mM/L solution or/and 5-HT (1 mM/L). The ITC data were processed using MicroCal PEAQ-ITC analysis software with calorimetric routines. The following parameters were determined: the standard interaction Gibbs energy (ΔG), standard interaction enthalpy (ΔH), entropy (ΔS), equilibrium constant (KD), and stoichiometry of reaction (N).

MAO-A [2] = molecular target: T1, MAO-A; assay: Inhibition of 5-HT deamination by the MAO-A enzyme (ITC); format: biochemical; settings: for IC50: rate of 5-HT deamination
Experimental: as §1
Compounds 4 and 4 combined with 2 were at a similar level of about 5 μmol/μmol of the enzyme. Substrate 1, tested with lactones 2 and 3, turned out to be the least beneficial compounds, with a high concentration inhibiting the activity of the enzyme by 50%, and had the least favorable affinity. This effect can be explained by the binding of several compounds in the mixture to different MAO-A residues at the active site and in other regions. Molecular docking can be used in future research to confirm this assumption.
as §2

primary rat hepatocytes = settings: concentration 0–500 µM; cited from earlier work
[3] = test system: primary human hepatocytes; settings: concentration 0–500 µM; cited from earlier work
[4] = test system: primary rat hepatocytes and primary human hepatocytes; settings: repetitive administration; cited from earlier work
[5] = set-up: method as in PMID 34060121; settings: rat plasma and liver microsomes; cited from earlier work
[6] = set-up: method as in PMID 23169608; settings: in vivo; cited from earlier work
MAO-A [7] = molecular target: T1, MAO-A; set-up: method as in PMID 23374869; settings: MAO-A inhibition; cited from earlier work
[8] = ITC, 36.6 °C, mean ± SD, n = 3, read-out: KD
[9] = KM 5-HT 0.35 mmol, mean ± SD, n = 3, read-out: Ki

Row | SMILES | KA ∗ 10^3 (MAO-A [1]; ITC, 36.6 °C, mean ± SD, n = 3) | ∆G (affinity) (MAO-A [1]; ITC, 36.6 °C, mean ± SD, n = 3) | ∆H (MAO-A [1]; ITC, 36.6 °C, mean ± SD, n = 3) | ∆S (MAO-A [1]; ITC, 36.6 °C, mean ± SD, n = 3) | Kd (MAO-A [1]; [8]) | Ki (MAO-A [2]; [9]) | IC50 (MAO-A [2]) | Kd (MAO-A [1]) | toxicity (primary rat hepatocytes) | toxicity [3] | Ki (MAO-A [2]) | cell viability [4] | rank among metabolites of 3-n-butylphthalide [5] | rank among circulating human metabolites of 3-n-butylphthalide [6] | Ki (MAO-A [7])
1 | O=C1OC(CCCCO)c2ccccc21 (centres unmarked) [Compound 3, 3-n-butyl-11-hydroxyphthalide] | 4.18 ± 0.35 ^e 10^3 L/mol | −23.49 kJ/mol and −23.49 ± 1.42 ^i kJ/mol | −19.19 kJ/mol and −19.19 ± 0.01 ^f kJ/mol | 13.92 ± 0.92 ^a J/mol ∗ K | 239 ± 4.25 µM | < 0.001 µM | 1.29 μmol/μmol of enzyme |  |  |  |  |  |  |  | 
2 | CCCCC1OC(=O)c2ccccc21 (centres unmarked) [Compound 1, 3-n-butylphthalide] | 41.15 ± 0.36 ^d 10^3 L/mol | -6.532 ± 0.272 kcal/mol | −4.51 kJ/mol and −4.51 ± 0.02 ^e kJ/mol | 73.85 ± 1.05 ^d J/mol ∗ K |  |  |  | 24.3 ± 1.39 µM | not toxic | not toxic | 241 ± 3.55 µM | reduction in cell viability |  |  | 
3 | CC(O)CCC1OC(=O)c2ccccc21 (centres unmarked) [Compound 2, 3-n-butyl-10-hydroxyphthalide] | 33.44 ± 0.15 ^a 10^3 L/mol | −26.79 ± 1.55 ^j kJ/mol | −7.77 ± 0.01 ^e kJ/mol | 61.55 ± 1.84 ^d J/mol ∗ K | 29.9 ± 1.09 µM | 994 ± 3.18 µM |  |  |  |  |  |  | main metabolite | dominant circulating human metabolite | 
4 | O=C(O)CCCC1OC(=O)c2ccccc21 (centres unmarked) [Compound 4, 3-n-butylphthalide-11-oic acid] | 14.83 ± 0.25 ^e 10^3 L/mol | −28.42 kJ/mol and −28.42 ± 1.43 ^j kJ/mol | −13.37 kJ/mol and −13.37 ± 0.02 ^f kJ/mol | 48.71 ± 1.05 ^a J/mol ∗ K | 67.4 ± 3.15 µM | 128 ± 1.25 µM | about 5 μmol/μmol of enzyme |  |  |  |  |  |  |  | 
5 | O=C1OCc2ccc(OCCCc3ccccc3)cc21 [6-phenyl-propoxyphthalide] |  |  |  |  |  |  |  |  |  |  |  |  |  |  | 0.062 µM
